Results on 36 molecules are retold here after ChEMBL document CHEMBL1144200, “Discovery and biological evaluation of benzo[a]carbazole-based small molecule agonists of the thrombopoietin (Tpo) receptor” (Bioorg Med Chem Lett, 2008).

In one data set the target is T1, Thrombopoietin receptor (Homo sapiens, UniProt P40238).
T1 sequence (P40238 whole entry): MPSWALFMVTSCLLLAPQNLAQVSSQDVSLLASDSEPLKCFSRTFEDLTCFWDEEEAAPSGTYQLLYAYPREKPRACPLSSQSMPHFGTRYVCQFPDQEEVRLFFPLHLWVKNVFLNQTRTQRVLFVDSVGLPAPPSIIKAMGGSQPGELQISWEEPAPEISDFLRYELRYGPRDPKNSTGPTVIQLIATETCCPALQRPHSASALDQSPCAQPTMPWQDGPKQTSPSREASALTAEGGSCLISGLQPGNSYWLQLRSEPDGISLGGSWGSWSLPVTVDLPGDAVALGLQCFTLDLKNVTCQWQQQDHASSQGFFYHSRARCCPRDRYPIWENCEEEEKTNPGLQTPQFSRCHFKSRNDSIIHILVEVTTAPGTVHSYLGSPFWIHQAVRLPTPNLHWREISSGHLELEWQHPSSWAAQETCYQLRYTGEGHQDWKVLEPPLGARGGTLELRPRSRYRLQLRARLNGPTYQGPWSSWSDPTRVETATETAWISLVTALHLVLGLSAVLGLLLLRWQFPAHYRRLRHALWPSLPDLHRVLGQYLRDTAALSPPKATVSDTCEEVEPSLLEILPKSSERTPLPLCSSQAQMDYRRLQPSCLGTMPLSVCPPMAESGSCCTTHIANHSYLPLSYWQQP
Briefly: Agonist activity at human thrombopoietin receptor in Ba/F3 cells assessed as activation of Stat5 response element-driven reporter gene expression. It is filed as functional, cell-based, BaF3. (In general: In a reporter assay the amount or activity of a reporter protein is the signal.)

Data set [1] concerns the target T2, Thrombopoietin receptor (Homo sapiens) (UniProt P40238).
T2 sequence (whole entry): T1 sequence (P40238 whole entry)
The data set can be described thus: Agonist activity at human thrombopoietin receptor in Ba/F3 cells assessed as activation of Stat5 response element-driven reporter gene expression relative to 30 ng/mL thrombopoietin. It is filed as functional, cell-based. The settings on record: BaF3.

The nature of data set [2]: Bioavailability in BALB/c mouse at 20 mg/kg, po. The settings on record: in vivo. Format: ADME, organism-based.
A short description of data set [3]: Half life in BALB/c mouse at 20 mg/kg, po. It is filed as ADME, organism-based. Further details: dose 20 mg/kg, route oral. Particulars: in vivo.
The nature of data set [4]: Cmax in BALB/c mouse at 20 mg/kg, po. The settings on record: in vivo. Set-up: dose 20 mg/kg, route oral. Format: ADME, organism-based.

Bounds are passed on as bounds.

As usually defined, the EC50 is the concentration at which the effect is half-maximal. The term bioavailability denotes the share of a dose that reaches the circulation, judged against a reference dose that is usually intravenous. Read a low bioavailability as little systemic uptake. By half-life is commonly meant how long it takes for the measured level to halve. Read a low half-life as fast loss. As a reminder, the Cmax is the highest concentration seen after dosing.

For `O=C(O)c1cc2c(cc1O)-c1[nH]c3cc(C4CCCCC4)ccc3c1CC2`, the EC50 at Thrombopoietin receptor was > 30000 nM.

In the case of `CCCCc1ccc(-c2ccc3c4c([nH]c3c2)-c2ccc(C(=O)N(C)C)cc2CC4)cc1`, in data set [1], the Efficacy was determined as 132%. On Thrombopoietin receptor, the EC50 came out at 127 nM.

Consider `Cc1ccc(-c2ccc3c4c([nH]c3c2)-c2cc(O)c(C(=O)O)cc2CC4)cc1`, for which the Efficacy in data set [1] came out at 154%. In addition, the EC50 at Thrombopoietin receptor was determined as 109 nM.

On to `O=C(O)c1cc2c(cc1O)-c1[nH]c3cccc(-c4ccccc4)c3c1CC2`, for which, at Thrombopoietin receptor, the EC50 is > 30000 nM.

For the molecule `CCCOc1ccc(-c2ccc3c4c([nH]c3c2)-c2cc(O)c(C(=O)O)cc2CC4)cc1`, in data set [1], the Efficacy was determined as 129%. The EC50 at Thrombopoietin receptor is 41 nM.

In the case of `COC(=O)c1cc2ccc3c4ccccc4[nH]c3c2cc1O`, the Efficacy in data set [1] is 11%. Besides, the EC50 at Thrombopoietin receptor turned out to be 1300 nM.

In the case of `Cc1cc(-c2ccc3c4c([nH]c3c2)-c2cc(O)c(C(=O)O)cc2CC4)ccc1F`, the Efficacy in data set [1] amounted to 126%. The EC50 at Thrombopoietin receptor was determined as 35 nM.

Regarding `Cc1cccc(-c2ccc3c4c([nH]c3c2)-c2cc(O)c(C(=O)O)cc2CC4)c1`, the Efficacy in data set [1] amounted to 128%. For the same molecule, the EC50 at Thrombopoietin receptor was found to be 194 nM.

Consider `O=C(O)c1cc2c(cc1O)-c1[nH]c3c(C(F)(F)F)cccc3c1CC2`, for which the Efficacy in data set [1] was found to be 37%. In addition, at Thrombopoietin receptor, the EC50 amounted to 7830 nM.

Consider `CCCCc1ccc(-c2ccc3c4c([nH]c3c2)-c2ccc(C(N)=O)cc2CC4)cc1`, for which, in data set [1], the Efficacy was determined as 111%. The EC50 at Thrombopoietin receptor was 76 nM.

On to `O=C(O)c1cc2c(cc1O)-c1[nH]c3cc(C(F)(F)F)ccc3c1CC2`, for which the Efficacy in data set [1] stood at 96%. For the same molecule, at Thrombopoietin receptor, the EC50 came out at 473 nM.

In the case of `Cc1ccc2c(c1)[nH]c1c3cc(O)c(CC(=O)O)cc3ccc21`, in data set [1], the Efficacy stood at 70%. Moreover, the EC50 on Thrombopoietin receptor was 9200 nM.

For the molecule `CCCCc1ccc(-c2ccc3c4c([nH]c3c2)-c2ccc(-c3nnn[nH]3)cc2CC4)cc1`, in data set [1], the Efficacy was determined as 128%. The EC50 on Thrombopoietin receptor stood at 119 nM.

As for `Cc1cc(C)cc(-c2ccc3c4c([nH]c3c2)-c2cc(O)c(C(=O)O)cc2CC4)c1`, the Efficacy in data set [1] amounted to 128%. For the same molecule, the EC50 at Thrombopoietin receptor turned out to be 67 nM. This molecule showed a bioavailability in data set [2] of 10%. This molecule also had a half-life in data set [3] of 246 min. Besides, the Cmax in data set [4] was found to be 2000 nM.

For the molecule `Cc1cccc(C)c1-c1ccc2c3c([nH]c2c1)-c1cc(O)c(C(=O)O)cc1CC3`, the Efficacy in data set [1] turned out to be 30%. Also, on Thrombopoietin receptor, the EC50 was 232 nM.

With `CCCCc1ccc(-c2ccc3c4c([nH]c3c2)-c2cc(O)c(C(=O)O)cc2CC4)cc1`, the Efficacy in data set [1] is 143%. Further, the EC50 on Thrombopoietin receptor amounted to 26 nM.

In the case of `Cc1ccc2c(c1)[nH]c1c3cc(O)c(C(=O)O)cc3ccc21`, in data set [1], the Efficacy was 76%. The EC50 at Thrombopoietin receptor was determined as 870 nM.

As for `COCc1ccc(-c2ccc3c4c([nH]c3c2)-c2cc(O)c(C(=O)O)cc2CC4)cc1`, in data set [1], the Efficacy was found to be 132%. Besides, the EC50 at Thrombopoietin receptor amounted to 452 nM.

Take `O=C(O)c1cc2c(cc1O)-c1[nH]c3cc(-c4ccccc4)ccc3c1CC2`: the Efficacy in data set [1] came to 136%. Besides, the EC50 at Thrombopoietin receptor amounted to 373 nM.

Turning to `O=C(O)c1cc2c(cc1O)-c1[nH]c3cc(-c4cccc(C(F)(F)F)c4)ccc3c1CC2`, the Efficacy in data set [1] was 127%. At Thrombopoietin receptor, the EC50 stood at 148 nM.

For the molecule `O=C(O)c1ccc2c3c([nH]c2c1)-c1cc(O)c(C(=O)O)cc1CC3`, the Efficacy in data set [1] came out at 74%. In addition, the EC50 at Thrombopoietin receptor worked out at 7790 nM.

For `Cc1ccc(-c2ccc3c4c([nH]c3c2)-c2cc(O)c(C(=O)O)cc2CC4)cc1C`, the Efficacy in data set [1] was 127%. For the same molecule, the EC50 on Thrombopoietin receptor was found to be 65 nM.

Regarding `N#Cc1ccc2[nH]c3c(c2c1)CCc1cc(C(=O)O)c(O)cc1-3`, the EC50 at Thrombopoietin receptor is > 30000 nM.

Take `COc1cc2c(ccc3c4ccccc4[nH]c23)cc1C(=O)O`: at Thrombopoietin receptor, the concentration giving a half-maximal response (EC50) was > 30000 nM.

Take `O=C(O)c1cc2ccc3c4ccc(C(F)(F)F)cc4[nH]c3c2cc1O`: the Efficacy in data set [1] came to 128%. Also, at Thrombopoietin receptor, the EC50 was 143 nM.

As for `O=C(O)c1cc2ccc3c4ccccc4[nH]c3c2cc1O`, the Efficacy in data set [1] amounted to 100%. On Thrombopoietin receptor, the EC50 amounted to 3400 nM.

As for `Cn1c2ccccc2c2ccc3cc(C(=O)O)c(O)cc3c21`, on Thrombopoietin receptor, the EC50 is > 30000 nM.

On to `O=C(O)c1cc2c(cc1O)-c1[nH]c3ccc(C(F)(F)F)cc3c1CC2`, for which, in data set [1], the Efficacy amounted to 115%. In addition, the EC50 on Thrombopoietin receptor is 333 nM.

Consider `CCCOc1cccc(-c2ccc3c4c([nH]c3c2)-c2cc(O)c(C(=O)O)cc2CC4)c1`, for which, in data set [1], the Efficacy came to 147%. For the same molecule, the 50% effective concentration (EC50) on Thrombopoietin receptor amounted to 43 nM.

`CCCCc1ccc(-c2ccc3c4c([nH]c3c2)-c2ccc(C(=O)O)cc2CC4)cc1`: in data set [1], the Efficacy was determined as 141%.

On to `OCc1cc2ccc3c4ccccc4[nH]c3c2cc1O`, for which the EC50 on Thrombopoietin receptor was > 30000 nM.

Turning to `CN(C)c1ccc(-c2ccc3c4c([nH]c3c2)-c2cc(O)c(C(=O)O)cc2CC4)cc1`, the Efficacy in data set [1] was 136%. Also, the EC50 on Thrombopoietin receptor was 284 nM.

Take `Cc1cc(-c2ccc3c4c([nH]c3c2F)-c2ccc(C3=NCCN3)cc2CC4)ccc1F`: the EC50 at Thrombopoietin receptor is > 30000 nM.

As to `O=C(O)c1cc2c(cc1O)-c1[nH]c3c(F)ccc(C(F)(F)F)c3c1CC2`, the Efficacy in data set [1] amounted to 101%. Besides, at Thrombopoietin receptor, the EC50 stood at 799 nM.

With `O=C(O)c1cc2c(cc1O)-c1[nH]c3ccc(-c4ccccc4)cc3c1CC2`, in data set [1], the Efficacy was 68%. Moreover, at Thrombopoietin receptor, the EC50 came to 569 nM.

As to `CCCCc1ccc(-c2ccc3c4c([nH]c3c2F)-c2ccc(C(=O)O)cc2CC4)cc1`, in data set [1], the Efficacy was 140%. Also, at Thrombopoietin receptor, the EC50 was determined as 55 nM.
